Measurements from patent publication US20100099732A1, “MEDICAMENTS USEFUL AS POTASSIUM CHANNEL MODULATORS” (NeuroSearch A/S, priority 2007, published 2010).

Molecular target: T1, BK channels (Homo sapiens, UniProt Q12791)
T1 construct: expressed in transfected cells; host or cells: Xenopus laevis oocytes
Experiment: BK channel opening activity, two-electrode voltage clamp in Xenopus laevis oocytes
Format: cell-based
Protocol: In this example the BK channel opening activity of a phenylcarbamoyl-methyl-indole derivative for use according to the invention, i.e. 5-Chloro-3-[(3-chloro-phenylcarbamoyl)-methyl]-1H-indole-2-carboxylic acid (herein designated Compound A), is determined using BK channels heterologously expressed in Xenopus laevis oocytes.
The electrical current through the BK channel is measured conventional two-electrode voltage clamp. BK current is activated by repeated step protocols. In brief, this protocol goes from a resting membrane potential of −40 mV lasting for 5 s to a depolarised step to +20 mV lasting for 1 s. The protocol was repeated continuously.
Having reached stable current level, Compound A (10 μM), was added. A marked increase in the current activated by depolarisation could be observed. The BK current activity returned to baseline after approximately 30-60 seconds of wash. In summary BK current was increased by 92±23% in the presence of 10 μM of compound A (n=3, SD value).

T1 sequence (Q12791 whole entry): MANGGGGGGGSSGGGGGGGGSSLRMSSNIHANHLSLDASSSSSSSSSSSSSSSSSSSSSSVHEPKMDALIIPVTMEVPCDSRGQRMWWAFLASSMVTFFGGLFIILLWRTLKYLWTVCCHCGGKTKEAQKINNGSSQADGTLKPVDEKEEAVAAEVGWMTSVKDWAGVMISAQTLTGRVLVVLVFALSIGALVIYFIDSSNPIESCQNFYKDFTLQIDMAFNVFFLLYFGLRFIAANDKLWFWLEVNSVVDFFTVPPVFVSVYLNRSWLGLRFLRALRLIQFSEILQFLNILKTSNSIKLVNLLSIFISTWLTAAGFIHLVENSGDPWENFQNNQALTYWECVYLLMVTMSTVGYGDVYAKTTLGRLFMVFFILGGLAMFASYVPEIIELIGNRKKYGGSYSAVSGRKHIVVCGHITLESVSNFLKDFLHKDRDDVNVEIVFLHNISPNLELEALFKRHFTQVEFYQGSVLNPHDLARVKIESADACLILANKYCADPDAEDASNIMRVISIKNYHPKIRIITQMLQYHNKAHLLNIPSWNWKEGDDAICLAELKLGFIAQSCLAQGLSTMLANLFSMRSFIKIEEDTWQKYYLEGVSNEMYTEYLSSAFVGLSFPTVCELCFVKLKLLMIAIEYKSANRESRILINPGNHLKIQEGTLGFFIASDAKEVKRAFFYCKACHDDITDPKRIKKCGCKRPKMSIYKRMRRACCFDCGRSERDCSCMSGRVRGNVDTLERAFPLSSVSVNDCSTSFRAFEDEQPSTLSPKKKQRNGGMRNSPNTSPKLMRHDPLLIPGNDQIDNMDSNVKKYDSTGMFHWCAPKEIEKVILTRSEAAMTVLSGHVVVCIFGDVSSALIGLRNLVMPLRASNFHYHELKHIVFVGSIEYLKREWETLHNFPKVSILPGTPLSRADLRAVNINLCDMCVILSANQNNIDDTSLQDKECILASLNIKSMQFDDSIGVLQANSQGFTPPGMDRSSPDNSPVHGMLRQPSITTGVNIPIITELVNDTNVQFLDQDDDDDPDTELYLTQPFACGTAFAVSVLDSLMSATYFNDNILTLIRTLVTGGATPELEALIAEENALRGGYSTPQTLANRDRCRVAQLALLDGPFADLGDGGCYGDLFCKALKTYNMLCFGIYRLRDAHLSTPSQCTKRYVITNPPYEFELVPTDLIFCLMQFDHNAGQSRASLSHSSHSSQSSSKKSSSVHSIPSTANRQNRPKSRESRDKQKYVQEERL

O=C(Cc1c(C(=O)O)[nH]c2ccc(Cl)cc12)Nc1cccc(Cl)c1 [Compound A, 5-Chloro-3-[(3-chloro-phenylcarbamoyl)-methyl]-1H-indole-2-carboxylic acid] was tested, and the BK current increase (10 μM compound, BK channels heterologously expressed in Xenopus laevis oocytes, depolarising step to +20 mV, n=3, SD value) was 92±23% and the “BK current activity return to baseline after wash” value (wash after 10 μM compound, Xenopus laevis oocytes) was 30 to 60 s.
